“Also recorded” adds a separate entry of the source.
Target: T1, methionyl tRNA synthetase (MetRS) (Escherichia coli, UniProt P00959)
T1 sequence (P00959 1-548 limits assumed): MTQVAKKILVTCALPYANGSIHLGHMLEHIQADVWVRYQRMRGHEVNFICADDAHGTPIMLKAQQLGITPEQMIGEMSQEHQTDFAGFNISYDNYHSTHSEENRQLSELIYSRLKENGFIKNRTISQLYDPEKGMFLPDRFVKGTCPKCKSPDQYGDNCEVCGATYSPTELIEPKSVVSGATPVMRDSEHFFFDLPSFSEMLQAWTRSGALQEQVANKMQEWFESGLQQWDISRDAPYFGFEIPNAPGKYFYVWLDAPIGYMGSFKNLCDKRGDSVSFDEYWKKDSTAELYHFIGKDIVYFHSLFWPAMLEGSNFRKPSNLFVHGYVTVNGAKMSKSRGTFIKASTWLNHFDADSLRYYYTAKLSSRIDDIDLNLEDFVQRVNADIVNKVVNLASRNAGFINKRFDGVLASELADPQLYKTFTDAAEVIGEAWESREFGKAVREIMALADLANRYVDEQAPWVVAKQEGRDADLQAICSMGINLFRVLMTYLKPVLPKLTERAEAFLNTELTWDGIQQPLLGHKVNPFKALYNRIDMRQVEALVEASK
Test: ATP-PPi exchange assay: activation of methionine and methionine analogues by MetRS
Type: biochemical, E. coli
Design: The fully active, truncated form of methionyl tRNA synthetase (MetRS) was purified from overnight cultures of JM101 cells carrying the plasmid pGG3; made in house; host or cells: E. coli JM101 carrying plasmid pGG3
Conditions: for fold lower kcat/Km (less efficiently activated) than methionine: relative to methionine
Description: The fully active, truncated form of methionyl tRNA synthetase (MetRS) was purified from overnight cultures of JM101 cells carrying the plasmid pGG3. (The plasmid, which encodes the tryptic fragment of MetRS, Ghosh, G.; Brunie, S.; Schulman, L. H. J. Biol. Chem. 1991, 266, 17136-17141). The enzyme was purified by size exclusion chromotography as previously described (Mellot, P.; Mechulam, Y.; LeCorre, D.; Blanquet, S.; Fayat, G. J. Mol. Biol. 1989, 208, 429). Activation of methionine analogues by MetRS was assayed via the amino-acid-dependent ATP-PPi exchange reaction, also as previously described (Mellot, P.; Mechulam, Y.; LeCorre, D.; Blanquet, S.; Fayat, G. J. Mol. Biol. 1989, 208, 429; Blanquet, S.; Fayat, G.; Waller, J.-P. Eur. J. Biochem. 1974, 44, 343; Ghosh, G.; Pelka, H.; Schulman, L. H. Biochemistry 1990, 29, 2220). The assay, which measures the ^32P-radiolabeled ATP formed by the enzyme-catalyzed exchange of ^32P-pyrophosphate (PPi) into ATP, was conducted in 150 μl of reaction buffer (pH 7.6, 20 mM imidazole; 0.1 mM EDTA, 10 mM β-mercaptoethanol, 7 mM MgCl2, 2 mM ATP, 0.1 mg/ml BSA, and 2 mM PPi (in the form of sodium pyrophosphate with a specific activity of approximately 0.18 TBq/mole)). […] Kinetic parameters for analogue 5 were obtained with an enzyme concentration of 75 nM and analogue concentrations of 100 μM to 10 mM. Parameters for methionine were obtained by using concentrations ranging from 10 μM to 1 mM. […] Aliquots of 20 μl were removed from the reaction mixture at various time points and were quenched in 0.5 ml of a solution comprising 200 mM PPi, 7% w/v HClO4, and 3% w/v activated charcoal. The charcoal was rinsed twice with 0.5 mL of a 10 mM PPi, 0.5% HClO4 solution and was then resuspended in 0.5 mL of this solution and counted via liquid scintillation methods. Kinetic constants were calculated by nonlinear regression analysis.
The fully active, truncated form of MetRS was purified from overnight cultures of JM101 cells carrying the plasmid pGG3. The enzyme was purified by size exclusion chromotography as previously described (P. Mellot, Y. Mechulam, D. LeCorre, S. Blanquet, G. Fayat, J. Mol. Biol. 1989, 208, 429-443). Activation of methionine analogues by MetRS was assayed at 25° C. via the amino acid-dependent ATP-PPi exchange reaction, also as described in Example I (G. Ghosh, H. Pelka, L. H. Schulman, Biochemistry 1990, 29, 2220-2225). […] Kinetic parameters for analogue 5 were obtained with an enzyme concentration of 50 nM and analogue concentrations of 100 μM to 10 mM. Kinetic parameters for analogue 11 were determined using an enzyme concentration of 50 nM and analogue concentrations ranging from 750 μM to 20 mM. Kinetic parameters for analogues 4, 7, 8, and 12 were obtained with an enzyme concentration of 50 or 75 nM and analogue concentrations ranging from 5 to 70 mM. Parameters for methionine were obtained by using concentrations ranging from 10 μM to 1 mM. […] Kinetic constants were calculated by nonlinear regression analysis.
The fully active, truncated form of MetRS was purified from overnight cultures of E. coli JM101 cells carrying the plasmid pGG3 (Kim, H. Y.; Ghosh, G.; Schulman, L. H.; Brunie, S.; Jakubowski, H. Proc. Natl. Acad. Sci. USA 1993, 90, 11553-11557), by using size exclusion methods previously reported (Mellot, P.; Mechulam, Y.; LeCorre, D.; Blanquet, S.; Fayat, G. J. Mol. Biol. 1989, 208, 429-443). Purified enzyme solutions (in 10 mM phosphate, pH 6.7, 10 mM (β-mercaptoethanol) were concentrated to at least 3 μM prior to their storage in 40% glycerol at −20° C. Concentrations of enzyme stocks were determined by the Bradford method, using samples of MetRS quantified by amino acid analysis as standards.

[1] = 75 nM enzyme, 5 mM L-isomer, 20 minutes
[2] = ATP-PPi exchange, purified truncated MetRS

Compound	rate/level of PPi exchange (activation by MetRS), in words [1]	fold lower kcat/Km (less efficiently activated) than methionine	further results
C/C=C/CC(N)C(=O)O (racemic) [Analogue 5, trans-2-amino-4-hexenoic acid]	very slow exchange of PPi; also recorded: neither recognized efficiently; also recorded: slow exchange of PPi	4700 fold	–
CCC[C@H](N)C(=O)O [Analogue 8, L-norvaline]	very slow exchange of PPi	–	–
CSCC[C@H](N)C(=O)O [Analogue 1, L-methionine, reference compound]	–	–	amount of PPi exchanged at a reaction time of 20 minutes [1]: 9 mmol
C#CCCC(N)C(=O)O (racemic) [Analogue 3, DL-homopropargylglycine]	rates similar to that of norleucine (9); also recorded: several-fold lower than methionine	500 fold	–
2-butynylglycine [Analogue 11]	very slow exchange of PPi; also recorded: slow exchange of PPi	13825 fold	Km [2]: 38.6 mM; kcat [2]: 1.51 ± 0.5 s⁻¹
CCCCCC(N)C(=O)O (racemic) [Analogue 7, DL-2-aminoheptanoic acid]	very slow exchange of PPi	–	–
CCCC[C@H](N)C(=O)O [Analogue 9, L-norleucine]	–	1050 fold	–
C/C=C\CC(N)C(=O)O (racemic) [Analogue 4, cis-2-amino-4-hexenoic acid]	does not cause measurable exchange of PPi; also recorded: very slow exchange of PPi	–	–
C=CCCC(N)C(=O)O (racemic) [Analogue 2, DL-2-amino-5-hexenoic acid]	rates similar to that of norleucine (9); also recorded: several-fold lower than methionine	1850 fold	–
C=CCC(N)C(=O)O (stereo not shown) [Analogue 12, allylglycine]	very slow exchange of PPi	–	–

From patent US7723070B2, “Overexpression of aminoacyl-tRNA synthetases for efficient production of engineered proteins containing amino acid analogues” (California Institute of Technology, priority 2000, dated 2010)
